Laboratory results taken from the NIST ThermoML archive (doi:10.1016/j.jct.2005.10.001).

What was measured:
[1] = Liquid; for mass density: 293.15 K, 101.33 kPa, Vibrating tube method
[2] = refractive index (Na D-line) (dimensionless); details: 293.15 K; 101.33 kPa; Liquid; Standard Abbe refractometry

C=C(C)OCC [2-ethoxy-1-propene]
Details	mass density [kg/m3]	refractive index
[1]	771.2	–
[2]	–	1.3913

[1], Ebulliometric method (Recirculating still)
Details	vapor or sublimation pressure [kPa]
320.98 K	62.74
322.13 K	65.19
322.7 K	66.66
323.15 K	67.84
323.47 K	68.4
324.5 K	70.65
325.43 K	72.69
326.52 K	75.47
327.43 K	77.89
327.69 K	79.99
328.26 K	80.16
329.39 K	83.21
329.89 K	85.35
329.96 K	86.66
331.07 K	88.17
331.1 K	89.99
331.48 K	90.62
332.88 K	93.41
333.15 K	95.98
333.68 K	96.12
334.46 K	98.47
334.57 K	99.82
334.67 K	99.99

CC(C)=O [acetone]
Details	mass density [kg/m3]	refractive index
[1]	784.5	–
[2]	–	1.359

[1]
Details	vapor or sublimation pressure [kPa]
317.58 K	66.66
322.68 K	79.99
323.15 K	81.39
324.94 K	86.66
328.98 K	99.99

CCC(C)=O [butanone]
Details	mass density [kg/m3]	refractive index
[1]	799.8	–
[2]	–	1.3765

[1]
Details	vapor or sublimation pressure [kPa]
333.15 K	51.89
340.17 K	66.66
345.51 K	79.99
349.12 K	89.99
352.3 K	99.99
